From US20210323918A1, “COMPOSITIONS AND METHODS FOR SUPPRESSING AND/OR TREATING A GROWTH RELATED DISEASE AND/OR A CLINICAL CONDITION THEREOF” (CK Biotech Inc., priority 2018, published 2021)

Columns and labels:
[1] = In vivo pharmacokinetics of KY19382; design: species or system Sprague-Dawley (SD) rats; settings: rat
Experimental: In vivo pharmacokinetics of KY19382. Animal studies were approved by the Institutional Animal Care and use committee at KRIBB. Briefly, specific pathogen-free male Sprague-Dawley (SD) rats (10 weeks old, body weight 298-315 g), purchased from Koatech Co. (Kyeonggi, Republic of Korea), were given a single dose of KY19382 intravenously (iv, 1 mg/kg, n=3) or intraperitoneal (ip, 5 mg/kg, n=3). […] A 100 μl aliquot of each plasma sample was prepared, and three volumes of ice-cold acetonitrile containing carbamazepine (internal standard) were added. The mixture was centrifuged at 910 g for 10 min, and the supernatant was subjected to LC-MS/MS analysis. Pharmacokinetic parameters were calculated by standard noncompartmental analysis of plasma concentration-time profiles using Kinetica 4.4.1 (Thermo Fisher Scientific, Inc., Woburn, Mass., USA). The areas under the plasma concentration-time curves (AUC) were calculated by the linear-trapezoidal method. Systemic plasma clearance (CLP) was calculated as follows: CLP=dose/AUCinf. […] Volume of distribution at steady state (VSS) was calculated as follows: VSS=dose×AUMCinf/(AUCinf)2, where AUMCinf is the area under the first moment of the plasma concentration-time curve extrapolated to infinity Bioavailability (F) was calculated as follows: F (%)=(AUCip/AUCiv)(doseiv/doseip)×100.

[2] = Toxicity observation during 10 weeks of treatment in mice; type: in vivo
Experimental: Animals. Cxxc5^−/− mice were established in a previous study. See e.g., Kim H. Y. et al. (2015), CXXC5 is a negative feedback regulator of the Wnt/beta-catenin pathway involved in osteoblast differentiation. CELL DEATH DIFFER 22: 912-920. To manipulate growth plate senescence by estrogen, 3-week-old […] Cxxc5^−/− male mice received weekly intramuscular (i.m.) injections of either 70 μg/kg estradiol (E2) cypionate (Sigma-Aldrich) or vehicle (cottonseed oil) for 3 weeks. To investigate the effects of KY19382 treatment on longitudinal bone growth, C57BL/6 male mice were purchased from KOATECH (Gyeonggido, Korea). KY19382 (0.1 ing/kg) was administered daily by intraperitoneal (i.p.) injection to 3- and 7-week-old mice for 2 weeks or to 3-week-old mice for 10 weeks. For BrdU labeling experiments, mice were i.p. injected with 50 mg/kg BrdU (Sigma-Aldrich) before 24 hours to sacrifice. […]
Radiographic and histochemical analyses. […] For fluorescence staining, the sections were incubated with primary antibody at 4° C. overnight, followed by incubation with anti-mouse Alexa Fluor 488 (ThermoFisher Scientific, A11008; 1:200) or anti-rabbit Alex Fluor 555 (ThermoFisher Scientific, A21428; 1:200) secondary antibodies at room temperature for 1 hour. […]

[3] = system: Tibial organ cultures (E15.5); experiment: Tibial organ culture (ex vivo); design: species or system mice; settings: 100 nM for 6 days
Experimental: Tibial organ culture. Tibiae were isolated from embryonic day 15.5 (e15.5) mice and cultured for 6 days in phenol red-free a-MEM (Gibco) containing ascorbic acid, β-glycerophosphate, BSA, L-glutamine, and penicillin-streptomycin, as previously described (Gillespie et al, 2011). After dissection, tibiae were incubated in medium overnight and then treated with E2 (Sigma-Aldrich). Media and reagents were changed every 48 hours. Tibial images were captured using a SMZ-745T microscope (Nikon). Tibial length was measured prior to treatment and after 6 days in culture. The samples were then prepared for paraffin embedding, sectioned, and analyzed by H&E and IHC staining.

[4] = male, Sprague-Dawley, plasma, IP, 5 mg/kg, mean
[5] = male, Sprague-Dawley, plasma, IV, 1 mg/kg, mean

Row | Compound | CL ([1]; IP, 5 mg/kg, mean) [mL/min/kg] | bioavailability ([1]; male, Sprague-Dawley, plasma, intraperitoneal, IP, 5 mg/kg vs IV, 1 mg/kg) [%] | AUC(0-t) [1, 4] [ng·h/mL] | Cmax [1, 4] [ng/mL] | Tmax [1, 4] [h] | half-life [1, 4] [h] | AUC(0-t) [1, 5] [ng·h/mL] | clearance [1, 5] [mL/min/kg] | half-life [1, 5] [h] | Vd ([1]; male, Sprague-Dawley, plasma, IV, 1 mg/kg, mean, read-out: Vss) [L/kg] | histological abnormalities in articular cartilage and liver tissues ([2]; 0.1 mg/kg daily for 10 weeks) | weight during treatment ([2]; 0.1 mg/kg daily, 10 weeks of treatment, vs vehicle) | tibial length [3]
1 | CO/N=C1/C(=C2/C(=O)Nc3cc(Cl)c(Cl)cc32)Nc2ccccc21 [KY19382, 5,6-dichloroindirubin-3′-methoxime] | 7.83 | 16.7 | 6560 | 463 | 1 | 16.2 | 7830 | 2 | 3.33 | 0.33 | no histological abnormalities | no difference | 
2 | 17β-estradiol [Compound E2] |  |  |  |  |  |  |  |  |  |  |  |  | reduced
